According to patent publication US10828316B2, “Method of treating bacterial infections” (priority 2016, dated 2020):
In brackets after ≈: the same amount, converted by molar mass. Like-named read-outs stand apart in the source and are kept apart here.

Assays:
S. flexneri APV00906 = assay: MIC; type: cell-based; settings: for MIC: Shigella flexneri
S. sonnei APV00908 = assay: MIC; type: cell-based; settings: for MIC: Shigella sonnei
S. flexneri APV00907 = assay: MIC; type: cell-based; settings: for MIC: Shigella flexneri
K. pneumoniae EN0006 = assay: MIC; type: cell-based; settings: in didanosine+trimethoprim+uridine combination
P. aeruginosa EN0004 = assay: MIC; type: cell-based; settings: in didanosine+trimethoprim+uridine combination
P. aeruginosa EN015 = assay: MIC; type: cell-based, Pseudomonas aeruginosa; settings: Pseudomonas aeruginosa
E. coli strain no 2 = assay: MIC; settings: Escherichia coli, NO2, read-out: MIC Didanosine, E. coli strain 2
K. pneumoniae EN011 = assay: MIC; type: cell-based, Klebsiella pneumoniae; settings: Klebsiella pneumoniae
A. baumannii EN0007 = assay: MIC; type: cell-based, A. baumanii; settings: in didanosine+trimethoprim+uridine combination
E. coli EN001 = assay: MIC; type: cell-based, Escherichia coli
E. coli EN013 = assay: MIC; type: cell-based, Escherichia coli; settings: Escherichia coli
E. coli EN0001 = assay: MIC; type: cell-based; settings: in didanosine+trimethoprim+uridine combination
K. pneumoniae EN0262 = settings: commercial antibiotics, data provided by IMBIM, BMC, Uppsala University; cited from earlier work
P. aeruginosa EN014 = assay: MIC; type: cell-based, Pseudomonas aeruginosa; settings: Pseudomonas aeruginosa, Combination 2, read-out: MIC, thymidine concentration
E. coli B EN0458 = assay: MIC; type: cell-based, Escherichia coli B; settings: Escherichia coli, BEN0458, Combination 2, read-out: MIC, thymidine concentration
P. aeruginosa EN0422 = assay: MIC; type: cell-based, Pseudomonas aeruginosa; settings: Pseudomonas aeruginosa, Combination 2, read-out: MIC, thymidine concentration
Citrobacter sp. EN0465 = assay: MIC; type: cell-based; settings: Combination 2, read-out: MIC, thymidine concentration
K. oxytoca EN0392 = assay: MIC; type: cell-based, Klebsiella oxytoca; settings: Klebsiella oxytoca, Combination 2, read-out: MIC, thymidine concentration
K. pneumoniae EN010 = assay: MIC; type: cell-based, Klebsiella pneumoniae; settings: Klebsiella pneumoniae, Combination 2, read-out: MIC, thymidine concentration
S. typhimurium EN0466 = assay: MIC; type: cell-based, Salmonella typhimurium; settings: Salmonella enterica, Combination 2, read-out: MIC, thymidine concentration
A. baumannii EN017 = assay: MIC; type: cell-based, Acinetobacter baumannii; settings: Acinetobacter baumannii; A. baumannii EN017; Combination 2; read-out: MIC, thymidine concentration
E. coli EN003 = assay: MIC; type: cell-based, Escherichia coli; settings: Escherichia coli, Combination 2, read-out: MIC, thymidine concentration
S. epidermidis EN0456 = assay: MIC; type: cell-based, Staphylococcus epidermidis; settings: Staphylococcus epidermidis, Combination 2, read-out: MIC, thymidine concentration
P. aeruginosa EN005 = assay: MIC; type: cell-based, Pseudomonas aeruginosa; settings: Pseudomonas aeruginosa, Combination 2, read-out: MIC, thymidine concentration
S. aureus EN008 = assay: MIC; type: cell-based, Staphylococcus aureus; settings: Staphylococcus aureus, Combination 2, read-out: MIC, thymidine concentration
P. aeruginosa EN0459 = assay: MIC; type: cell-based, Pseudomonas aeruginosa; settings: Pseudomonas aeruginosa, Combination 2, read-out: MIC, thymidine concentration
K. pneumoniae EN0463 = assay: MIC; type: cell-based, Klebsiella pneumoniae; settings: Klebsiella pneumoniae, Combination 2, read-out: MIC, thymidine concentration
P. mirabilis ST19 EN0445 = assay: MIC; type: cell-based, Proteus mirabilis; settings: Proteus mirabilis, ST19EN0445, Combination 2, read-out: MIC, thymidine concentration
K. pneumoniae EN006 = assay: MIC; type: cell-based, Klebsiella pneumoniae; settings: Klebsiella pneumoniae, Combination 2, read-out: MIC, thymidine concentration
[1] = test system: A. pittii or A. nosocomialis EN0180; assay: MIC; type: cell-based, Acinetobacter pittii or nosocomialis; settings: Combination 2, read-out: MIC, thymidine concentration
P. mirabilis EN0457 = assay: MIC; type: cell-based, Proteus mirabilis; settings: Proteus mirabilis, Combination 2, read-out: MIC, thymidine concentration
S. marescens EN0454 = assay: MIC; type: cell-based, Serratia marescens; settings: Serratia, Combination 2, read-out: MIC, thymidine concentration
A. baumannii EN007 = assay: MIC; type: cell-based, Acinetobacter baumannii; settings: Acinetobacter baumannii, Combination 2, read-out: MIC, thymidine concentration
P. aeruginosa EN0460 = assay: MIC; type: cell-based, Pseudomonas aeruginosa; settings: Pseudomonas aeruginosa, Combination 2, read-out: MIC, thymidine concentration
M. luteus EN0455 = assay: MIC; type: cell-based, Micrococcus luteus; settings: Micrococcus luteus, Combination 2, read-out: MIC, thymidine concentration
P. aeruginosa EN004 = assay: MIC; type: cell-based, Pseudomonas aeruginosa; settings: Pseudomonas aeruginosa, Combination 2, read-out: MIC, thymidine concentration
E. coli EN012 = assay: MIC; type: cell-based, Escherichia coli; settings: Escherichia coli, Combination 2, read-out: MIC, thymidine concentration
E. coli EN002 = assay: MIC; type: cell-based, Escherichia coli; settings: Escherichia coli, Combination 2, read-out: MIC, thymidine concentration
A. baumannii EN016 = assay: MIC; type: cell-based, Acinetobacter baumannii; settings: Acinetobacter baumannii, Combination 2, read-out: MIC, thymidine concentration
E. aerogenes EN0461 = assay: MIC; type: cell-based, Enterobacter aerogenes; settings: Klebsiella aerogenes, Combination 2, read-out: MIC, thymidine concentration
S. aureus strain no 13 = assay: MIC; settings: S. aureus strain 13, trimethoprim 2 μg/ml
[2] = S. flexneri APV00906, read-out: Antibiogram MIC
[3] = S. sonnei APV00908, read-out: Antibiogram MIC
[4] = S. flexneri APV00907, read-out: Antibiogram MIC

O=C1CN(/N=C/c2ccc([N+](=O)[O-])o2)C(=O)N1 [Nitrofurantoin]
MIC (S. flexneri APV00906; [2]): ≤ 16 µg/mL
MIC (S. sonnei APV00908; [3]): ≤ 16 µg/mL
MIC (S. flexneri APV00907; [4]): ≤ 16 µg/mL

O=c1[nH]cnc2c1ncn2[C@H]1CC[C@@H](CO)O1 [Didanosine, didanosine]
MIC (K. pneumoniae EN0006): 0.5 µg/mL
MIC (P. aeruginosa EN0004): >4 µg/mL
MIC (P. aeruginosa EN015; EN015, P. aeruginosa EN015, in didanosine+trimethoprim+uridine combination): 1 µg/mL
MIC (E. coli strain no 2; trimethoprim 0, uridine 0 μg/ml): > 30 µg/mL
MIC (E. coli strain no 2; trimethoprim 0, uridine 10 μg/ml): > 30 µg/mL
MIC (E. coli strain no 2; trimethoprim 0, uridine 100 μg/ml): > 30 µg/mL
MIC (E. coli strain no 2; trimethoprim 1 μg/ml, uridine 0 μg/ml): > 2.5 µg/mL
MIC (E. coli strain no 2; trimethoprim 1 μg/ml, uridine 10 μg/ml): > 2.5 µg/mL
MIC (E. coli strain no 2; trimethoprim 2 μg/ml, uridine 0 μg/ml): > 2.5 µg/mL
MIC (E. coli strain no 2; trimethoprim 2 μg/ml, uridine 10 μg/ml): > 2.5 µg/mL
MIC (K. pneumoniae EN011; EN011, K. pneumoniae EN011, in didanosine+trimethoprim+uridine combination): 0.125 µg/mL
MIC (A. baumannii EN0007): >4 µg/mL
MIC (E. coli EN001; in didanosine+trimethoprim+uridine combination): 0.125 µg/mL
MIC (E. coli EN013; EN013, E. coli EN013, in didanosine+trimethoprim+uridine combination): 0.016 µg/mL
MIC (E. coli EN0001): 0.25 µg/mL

CC(C)(O/N=C(\C(=O)N[C@@H]1C(=O)N2C(C(=O)[O-])=C(C[n+]3ccccc3)CS[C@H]12)c1csc(N)n1)C(=O)O [ceftazidime]
MIC (S. flexneri APV00906; [2]): 16 µg/mL (≈ 29.3 µM)
MIC (S. sonnei APV00908; [3]): ≤ 1 µg/mL
MIC (K. pneumoniae EN0262): >32 µg/mL
MIC (S. flexneri APV00907; [4]): ≤ 1 µg/mL

C[C@@H](O)[C@H]1C(=O)N2C(C(=O)O)=C(S[C@@H]3CN[C@H](C(=O)N(C)C)C3)[C@H](C)[C@H]12 [meropenem]
MIC (S. flexneri APV00906; [2]): ≤ 0.25 µg/mL
MIC (S. sonnei APV00908; [3]): ≤ 0.25 µg/mL
MIC (K. pneumoniae EN0262): >8 µg/mL
MIC (S. flexneri APV00907; [4]): ≤ 0.25 µg/mL

Cc1cn([C@H]2C[C@H](O)[C@@H](CO)O2)c(=O)[nH]c1=O [Thymidine, thymidine]
MIC (P. aeruginosa EN014): > 120 µM
MIC (E. coli B EN0458): < 0.2 µM
MIC (P. aeruginosa EN0422): > 120 µM
MIC (Citrobacter sp. EN0465): > 120 µM
MIC (K. oxytoca EN0392): 15 µM
MIC (K. pneumoniae EN010): 30 µM
MIC (S. typhimurium EN0466): 15 µM
MIC (A. baumannii EN017): 30 µM
MIC (E. coli EN003): < 0.2 µM
MIC (S. epidermidis EN0456): 60 µM
MIC (P. aeruginosa EN005): 30 µM
MIC (S. aureus EN008): > 120 µM
MIC (P. aeruginosa EN0459): > 120 µM
MIC (K. pneumoniae EN0463): 8 µM
MIC (P. aeruginosa EN015; P. aeruginosa EN015, Combination 2, read-out: MIC, thymidine concentration): 60 µM
MIC (P. mirabilis ST19 EN0445): > 120 µM
MIC (K. pneumoniae EN006): 15 µM
MIC [1]: > 120 µM
MIC (P. mirabilis EN0457): > 120 µM
MIC (S. marescens EN0454): > 120 µM
MIC (A. baumannii EN007): > 120 µM
MIC (K. pneumoniae EN011; K. pneumoniae EN011, Combination 2, read-out: MIC, thymidine concentration): 8 µM
MIC (P. aeruginosa EN0460): > 120 µM
MIC (M. luteus EN0455): > 120 µM
MIC (E. coli EN001; Escherichia coli, Combination 2, read-out: MIC, thymidine concentration): 30 µM
MIC (P. aeruginosa EN004): > 120 µM
MIC (E. coli EN013; E. coli EN013, Combination 2, read-out: MIC, thymidine concentration): < 0.2 µM
MIC (E. coli EN012): < 0.2 µM
MIC (E. coli EN002): 4 µM
MIC (A. baumannii EN016): > 120 µM
MIC (E. aerogenes EN0461): 60 µM

CO/N=C(\C(=O)N[C@@H]1C(=O)N2C(C(=O)[O-])=C(C[N+]3(C)CCCC3)CS[C@H]12)c1csc(N)n1 [cefepime]
MIC (S. flexneri APV00906; [2]): 2 µg/mL (≈ 4.16 µM)
MIC (S. sonnei APV00908; [3]): ≤ 1 µg/mL
MIC (K. pneumoniae EN0262): >16 µg/mL
MIC (S. flexneri APV00907; [4]): ≤ 1 µg/mL

CO/N=C(\C(=O)N[C@@H]1C(=O)N2C(C(=O)O)=C(COC(C)=O)CS[C@H]12)c1csc(N)n1 [cefotaxime]
MIC (S. flexneri APV00906; APV00906, read-out: Antibiogram MIC): ≥ 64 µg/mL
MIC (S. sonnei APV00908; APV00908, read-out: Antibiogram MIC): ≤ 1 µg/mL
MIC (K. pneumoniae EN0262): >32 µg/mL
MIC (S. flexneri APV00907; APV00907, read-out: Antibiogram MIC): ≤ 1 µg/mL

gentamicin
Antibiogram MIC (S. flexneri APV00906; S. flexneri APV00906): 4 µg/mL
Antibiogram category (S, I, R, R*) (S. flexneri APV00906; S. flexneri APV00906): R*
Antibiogram MIC (S. sonnei APV00908; S. sonnei APV00908): ≤ 1 µg/mL
Antibiogram category (S, I, R, R*) (S. sonnei APV00908; S. sonnei APV00908): R*
MIC (K. pneumoniae EN0262): 1 µg/mL
Antibiogram MIC (S. flexneri APV00907; S. flexneri APV00907): ≤ 1 µg/mL
Antibiogram category (S, I, R, R*) (S. flexneri APV00907; S. flexneri APV00907): R*

colistin
MIC (K. pneumoniae EN0262): 1 µg/mL

O=c1[nH]c(=O)n([C@H]2C[C@H](O)[C@@H](CO)O2)cc1Br [BrdUrd]
MIC BrdUrd (S. aureus strain no 13; uridine 10 μg/ml): ≤2 µg/mL
MIC BrdUrd (S. aureus strain no 13; uridine 100 μg/ml): ≤2 µg/mL
